Laboratory results published in patent US20220370416A1, “COMPOUNDS AND METHODS FOR TARGETED DEGRADATION OF KRAS” (Arvinas Operations, Inc., priority 2020, published 2022).

Tests used:
HiBit-KRAS^G12C [1] = target: T1, HiBit-KRAS^G12C (Homo sapiens, UniProt P01116, G12C); test: HiBit degradation assay in MiaPaCa-2 HiBit-KRas^G12C cells; type: cell-based; details: 24 hours; for Dmax: MIA PaCa-2, MiaPaCa-2 HiBit-KRas^G12C cells
Outline: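 DC50 and Dmax come from 4-parameter fits of DMSO-normalized HiBit luminescence after 24 hours' exposure at 37° C to 10 μM–20 nM compound in 0.1% or 0.5% DMSO. Cells: MiaPaCa-2 carrying one endogenously HiBit-tagged KRAS^G12C allele; concentrations causing ≥50% […] viability loss (alamar blue) excluded.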

HiBit-KRAS^G12C [2] = target: T1, HiBit-KRAS^G12C; test: HiBit degradation assay in SW1573 HiBit-KRas^G12C cells; type: cell-based; parameters: expressed in transfected cells; host or cells: SW1573 (clone E6), modified pcDNA3.1 vector, TK promoter; details: 24 hours
Outline: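 HiBit-KRAS G12C degradation was measured after a 24 h compound exposure (titrated 10 μM–20 nM) in engineered SW1573 cells. Lytic HiBit luminescence, expressed relative to DMSO controls, yielded DC50 and Dmax from 4-parameter fits. Concentrations causing ≥50% loss in alamar blue viability were omitted as cytotoxic.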

[3] = 0.5% DMSO, maximum degradation, read-out: KRas^G12C-HiBiT (MiaPaCa; 0.5% DMSO) DMax
[4] = read-out: KRas^G12C-HiBiT (MiaPaCa; 0.5% DMSO) IC50, MiaPaCa-2 HiBit-KRas^G12C cells, 0.5% DMSO
[5] = SW1573, SW1573 HiBit-KRas^G12C, 0.5% DMSO, read-out: KRas^G12C-HiBiT (SW1573; 0.5% DMSO) Dmax**
[6] = read-out: KRas^G12C-HiBiT (SW1573; 0.5% DMSO) IC50***, SW1573 HiBit-KRas^G12C, 0.5% DMSO
[7] = 0.1% DMSO, maximum degradation, read-out: KRas^G12C-HiBiT (MiaPaCa; 0.1% DMSO) DMax
[8] = SW1573, SW1573 HiBit-KRas^G12C, 0.1% DMSO, read-out: KRas^G12C-HiBit (SW1573; 0.1% DMSO) Dmax**
[9] = SW1573 HiBit-KRas^G12C, 0.1% DMSO, read-out: KRas^G12C-HIBit (SW1573; 0.1% DMSO) DC50*

T1 sequence (P01116 1-186 isoform P01116-2 G12C limits assumed): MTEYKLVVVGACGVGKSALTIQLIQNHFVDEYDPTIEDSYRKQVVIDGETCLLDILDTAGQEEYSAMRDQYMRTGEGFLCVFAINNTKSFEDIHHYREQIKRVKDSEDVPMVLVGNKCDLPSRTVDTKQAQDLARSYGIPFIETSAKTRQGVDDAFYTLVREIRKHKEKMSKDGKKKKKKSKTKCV

Row | Dmax (HiBit-KRAS^G12C [1]; [3]) [%] | DC50 (HiBit-KRAS^G12C [1]; [4]) [nM] | Dmax (HiBit-KRAS^G12C [2]; [5]) [%] | DC50 (HiBit-KRAS^G12C [2]; [6]) [nM] | Dmax (HiBit-KRAS^G12C [1]; [7]) [%] | Dmax (HiBit-KRAS^G12C [2]; [8]) [%] | Structure (SMILES) | DC50 (HiBit-KRAS^G12C [2]; [9]) [nM] | further results
1 | > 70 | 100 to 1000 | > 70 | < 100 | – | – | C=CC(=O)N1CCN(c2nc(OCCN3CCC(C)(COc4cc([C@H](C(=O)N5C[C@H](O)C[C@H]5C(=O)N[C@@H](C)c5ccc(-c6scnc6C)cc5)C(C)C)on4)CC3)nc3c(F)c(-c4cc(O)cc5ccccc45)c(Cl)cc23)C[C@@H]1CC#N [Compound 131, (2S,4R)-1-[(2R)-2-[3-({1-[2-({6-chloro-4-[(3S)-3-(cyanomethyl)-4-(prop-2-enoyl)piperazin-1-yl]-8-fluoro-7-(3-hydroxynaphthalen-1-yl)quinazolin-2-yl}oxy)ethyl]-4-methylpiperidin-4-yl}methoxy)-1,2-oxazol-5-yl]-3-methylbutanoyl]-4-hydroxy-N-[(1S)-1-[4-(4-methyl-1,3-thiazol-5-yl)phenyl]ethyl]pyrrolidine-2-carboxamide] | – | –
2 | > 70 | < 100 | 35 to 70 | < 100 | – | – | C=C(F)C(=O)N1CCN(c2nc(OCCN3CCC4(CC3)CN(c3cc([C@H](C(=O)N5C[C@H](O)C[C@H]5C(=O)N[C@@H](C)c5ccc(-c6scnc6C)cc5)C(C)C)on3)C4)nc3c(F)c(-c4cc(O)cc5ccccc45)c(Cl)cc23)C[C@@H]1CC#N (atropisomer, axis not shown) [Compound 109, (2S,4R)-1-[(2R)-2-(3-{7-[2-({6-chloro-4-[(3S)-3-(cyanomethyl)-4-(2-fluoroprop-2-enoyl)piperazin-1-yl]-8-fluoro-7-(3-hydroxynaphthalen-1-yl)quinazolin-2-yl}oxy)ethyl]-2,7-diazaspiro[3.5]nonan-2-yl}-1,2-oxazol-5-yl)-3-methylbutanoyl]-4-hydroxy-N-[(1S)-1-[4-(4-methyl-1,3-thiazol-5-yl)phenyl]ethyl]pyrrolidine-2-carboxamide] | – | –
3 | 35 to 70 | – | 35 to 70 | – | < 35 | 35 to 70 | C=CC(=O)N1CCN(c2nc(O[C@H](C)CN3CCC(CCOCC(=O)N[C@H](C(=O)N4C[C@H](O)C[C@H]4C(=O)N[C@@H](C)c4ccc(-c5scnc5C)cc4)C(C)(C)C)CC3)nc3c(F)c(-c4cc(O)cc5ccccc45)c(Cl)cc23)CC1 [Compound 68, (2S,4R)-1-[(2S)-2-[2-(2-{1-[(2R)-2-{[6-chloro-8-fluoro-7-(3-hydroxynaphthalen-1-yl)-4-[4-(prop-2-enoyl)piperazin-1-yl]quinazolin-2-yl]oxy}propyl]piperidin-4-yl}ethoxy)acetamido]-3,3-dimethylbutanoyl]-4-hydroxy-N-[(1S)-1-[4-(4-methyl-1,3-thiazol-5-yl)phenyl]ethyl]pyrrolidine-2-carboxamide] | 100 to 1000 | –
4 | – | > 1000 | – | > 1000 | – | – | C=C(F)C(=O)N1CCN(c2nc(OCCN3CCC(COc4cc([C@@H](C(=O)N5C[C@H](O)C[C@H]5C(=O)N[C@@H](C)c5ccc(-c6ccnn6C)cc5)C(C)C)on4)CC3)nc3c(F)c(-c4cc(O)cc5ccccc45)c(Cl)cc23)C[C@@H]1CC#N [Compound 158, (2S,4R)-1-[(2S)-2-[3-({1-[2-({6-chloro-4-[(3S)-3-(cyanomethyl)-4-(2-fluoroprop-2-enoyl)piperazin-1-yl]-8-fluoro-7-(3-hydroxynaphthalen-1-yl)quinazolin-2-yl}oxy)ethyl]piperidin-4-yl}methoxy)-1,2-oxazol-5-yl]-3-methylbutanoyl]-4-hydroxy-N-[(1S)-1-[4-(1-methyl-1H-pyrazol-5-yl)phenyl]ethyl]pyrrolidine-2-carboxamide] | – | –
5 | – | < 100 | – | < 100 | – | – | C=CC(=O)N1CCN(c2nc(OCCN3CCC4(CC3)CN(c3cc([C@H](C(=O)N5C[C@H](O)C[C@H]5C(=O)N[C@@H](C)c5ccc(-c6scnc6C)cc5)C(C)C)on3)C4)nc3c(F)c(-c4cc(O)cc5ccccc45)c(Cl)cc23)C[C@@H]1CC#N (atropisomer, axis not shown) [Compound 107, (2S,4R)-1-[(2R)-2-(3-{7-[2-({6-chloro-4-[(3S)-3-(cyanomethyl)-4-(prop-2-enoyl)piperazin-1-yl]-8-fluoro-7-(3-hydroxynaphthalen-1-yl)quinazolin-2-yl}oxy)ethyl]-2,7-diazaspiro[3.5]nonan-2-yl}-1,2-oxazol-5-yl)-3-methylbutanoyl]-4-hydroxy-N-[(1S)-1-[4-(4-methyl-1,3-thiazol-5-yl)phenyl]ethyl]pyrrolidine-2-carboxamide] | – | KRas^G12C-HiBiT (MiaPaCa; 0.5% DMSO) DMax (HiBit-KRAS^G12C [1]; MiaPaCa-2 HiBit-KRas^G12C cells, 0.5% DMSO, maximum degradation): B (35 < B < 70); KRas^G12C-HiBiT (SW1573; 0.5% DMSO) Dmax** (HiBit-KRAS^G12C [2]; SW1573 HiBit-KRas^G12C, 0.5% DMSO): B (35 < B < 70)
6 | – | – | – | – | – | – | C=CC(=O)N1CCN(c2nc(O[C@H](C)CN3CCC(OCCOC4CN(CC(=O)N[C@H](C(=O)N5C[C@H](O)C[C@H]5C(=O)N[C@@H](C)c5ccc(-c6scnc6C)cc5)C(C)(C)C)C4)CC3)nc3c(F)c(-c4cc(O)cc5ccccc45)c(Cl)cc23)CC1 [Compound 53, (2S,4R)-1-[(2S)-2-(2-{3-[2-({1-[(2R)-2-{[6-chloro-8-fluoro-7-(3-hydroxynaphthalen-1-yl)-4-[4-(prop-2-enoyl)piperazin-1-yl]quinazolin-2-yl]oxy}propyl]piperidin-4-yl}oxy)ethoxy]azetidin-1-yl}acetamido)-3,3-dimethylbutanoyl]-4-hydroxy-N-[(1S)-1-[4-(4-methyl-1,3-thiazol-5-yl)phenyl]ethyl]pyrrolidine-2-carboxamide] | 100 to 1000 | DC50 (HiBit-KRAS^G12C [1]; read-out: KRas^G12C-HiBiT (MiaPaCa; 0.1% DMSO) IC50, MiaPaCa-2 HiBit-KRas^G12C cells, 0.1% DMSO): > 1000 nM; Dmax (HiBit-KRAS^G12C [2]; SW1573, read-out: KRas^G12C-HiBit (SW1573; 0.1% DMSO) Dmax**, SW1573 HiBit-KRas^G12C, 0.1% DMSO): < 35%
7 | – | > 1000 | – | 100 to 1000 | – | – | C=C(F)C(=O)N1CCN(c2nc(OCCN3CCC(F)(COc4cc([C@@H](C(=O)N5C[C@H](O)C[C@H]5C(=O)N[C@@H](C)c5ccc(-c6ccnn6C)cc5)C(C)C)on4)CC3)nc3c(F)c(-c4cc(O)cc5ccccc45)c(Cl)cc23)C[C@@H]1CC#N (atropisomer, axis not shown) [Compound 118, (2S,4R)-1-[(2S)-2-[3-({1-[2-({6-chloro-4-[(3S)-3-(cyanomethyl)-4-(2-fluoroprop-2-enoyl)piperazin-1-yl]-8-fluoro-7-(3-hydroxynaphthalen-1-yl)quinazolin-2-yl}oxy)ethyl]-4-fluoropiperidin-4-yl}methoxy)-1,2-oxazol-5-yl]-3-methylbutanoyl]-4-hydroxy-N-[(1S)-1-[4-(1-methyl-1H-pyrazol-5-yl)phenyl]ethyl]pyrrolidine-2-carboxamide] | – | –
8 | 35 to 70 | – | 35 to 70 | – | 35 to 70 | 35 to 70 | C=CC(=O)N1CCN(c2nc(O[C@@H](C)CN3CCC(OCCOCC(=O)N[C@H](C(=O)N4C[C@H](O)C[C@H]4C(=O)N[C@@H](C)c4ccc(-c5scnc5C)cc4)C(C)(C)C)CC3)nc3c(F)c(-c4cc(O)cc5ccccc45)c(Cl)cc23)CC1 [Compound 67, (2S,4R)-1-[(2S)-2-{2-[2-({1-[(2S)-2-{[6-chloro-8-fluoro-7-(3-hydroxynaphthalen-1-yl)-4-[4-(prop-2-enoyl)piperazin-1-yl]quinazolin-2-yl]oxy}propyl]piperidin-4-yl}oxy)ethoxy]acetamido}-3,3-dimethylbutanoyl]-4-hydroxy-N-[(1S)-1-[4-(4-methyl-1,3-thiazol-5-yl)phenyl]ethyl]pyrrolidine-2-carboxamide] | 100 to 1000 | –

Row | Structure (SMILES) | Dmax (HiBit-KRAS^G12C [1]; [3]) [%] | DC50 (HiBit-KRAS^G12C [1]; [4]) [nM] | Dmax (HiBit-KRAS^G12C [2]; [5]) [%] | DC50 (HiBit-KRAS^G12C [2]; [6]) [nM] | Dmax (HiBit-KRAS^G12C [1]; [7]) [%] | Dmax (HiBit-KRAS^G12C [2]; [8]) [%] | DC50 (HiBit-KRAS^G12C [2]; [9]) [nM] | further results
9 | C=CC(=O)N1CCN(c2nc(OCCN3CCC(OCCOc4cc([C@H](C(=O)N5C[C@H](O)C[C@H]5C(=O)N[C@@H](C)c5ccc(-c6scnc6C)cc5)C(C)C)on4)CC3)nc3c(F)c(-c4cc(O)cc5ccccc45)c(Cl)cc23)C[C@@H]1CC#N (single isomer, unassigned) [Compound 21] | > 70 | – | > 70 | – | > 70 | > 70 | 100 to 1000 | –
